From patent US8114886B2, “Pyridylmethylsulfone derivative” (Daiichi Sankyo Company, Limited, priority 2005, dated 2012)
“Also recorded” adds a separate entry of the source. Read-outs that look alike come from different tables or passages of the source.

Experiments:
[1] = test system: intracerebral amount of Aβ; experiment: Assessment of β-amyloid protein production inhibitory action and immunosuppressing action in vivo; conditions: male SD rats, oral, single dose, cerebrum Aβ after 3 hours, repeated administration for 7 days for immunosuppression
Excerpt: As an example of the compound (1), the compounds described in Example 22, Example 85, Example 101, Example 106 or Example 118 (respectively, compound represented by the above formula (1-1), (1-2), (1-3), (1-4) or (1-5), which will be hereinafter referred respectively to compound (1-1), (1-2), (1-3), (1-4) or (1-5)), or the control compound LY, was suspended in a 0.5% aqueous solution of methylcellulose, and the suspension was orally administered in a single dose to male SD rats (about 5 weeks old). For the solvent control group, a 0.5% aqueous solution of methylcellulose was administered alone. After 3 hours of administration, the brain was excised, and the cerebrum was collected. The cerebrum was homogenized with a 42% aqueous solution of formic acid, and was centrifuged at 100,000×g for 60 minutes. The resulting supernatant was neutralized with 1 M Tris, and the Aβ concentration in these samples were measured using the sandwich type ELISA method as described in Test Example 1. Furthermore, the compound (1-1) to (1-5) or control compound LY was orally administered to male SD rats repeatedly for 7 days, and the rats were subjected to histopathological and serological examinations, so as to assess the immunosuppressing effect of the compound.

[2] = test system: β-amyloid protein (Aβ) secreted by E35 cells (H4 cells with APP751 gene); experiment: Screening system using E35 cells for inhibition of production/secretion of β-amyloid protein (sandwich ELISA of Aβ in culture medium); assay type: cell-based, human; conditions: 24 hours with compound, Aβ in culture supernatant by ELISA, read-out: Inhibitory Activity for Production of A(EC50)
Experimental: The activity of the compound inhibiting β-amyloid protein production was measured on E35 cells prepared by introducing APP751 gene, a gene of a human wild type β-amyloid protein precursor protein, to human glioma cells (H4 cells), by quantifying the amount of β-amyloid protein (Aβ) secreted to the culture medium by means of a sandwich type Enzyme-Linked Immunosorbent Assay (ELISA) method.
That is, E35 cells inoculated on a 96-well plate were cultured in an incubator at 37° C. which was maintained at equilibrium with 5% carbon dioxide, using Dulbecco's Modified Eagle's Medium containing inactivated 10% fetal bovine serum as the culture medium. After 24 hours from the inoculation, a test compound dissolved in a DMSO solution was added. The DMSO solution of the test compound was prepared at a concentration of 2000 times of the final concentration, such that the DMSO concentration in the culture medium would be 0.05%. After culturing for another 24 hours, the culture supernatant was recovered, and this was added to a 96-well plate for ELISA onto which a monoclonal antibody against Aβ, 25-1, was solid-phased. The plate was incubated at 4° C. for 16 to 20 hours. The plate was washed with phosphate buffer solution (pH 7.4), and then a biotinylated monoclonal antibody against Aβ, MA32-40, was added thereto. The plate was left to stand at 4° C. for 2 hours. The plate was washed again with phosphate buffer solution, and then alkaline phosphatase-conjugated streptavidin was added to conjugate streptavidin to biotin. Subsequently, the plate was washed with phosphate buffer solution. To this, Blue Phos (Kirkegaard & Perry Laboratories, Inc.) was added. After incubating the plate for an appropriate time, the reaction was terminated with an acid, and the absorbance for each well was measured. The amount of Aβ contained in the culture supernatant was determined from a calibration curve which was produced separately, and the amount was compared with that of control cells to which the compound was not added. Thus, the concentration at which 50% of the Aβ production is inhibited (EC50 value) was calculated. In addition, the 25-1 antibody and MA32-40 antibody used in ELISA were mouse monoclonal antibodies derived from the hybridoma cell clone lines, which were each produced and selected according to a standard method using Aβ25-35 and Aβ1-8 as antigens, respectively, and which specifically recognize their respective antigens. […]
The scores indicate ++++ for the case where EC50 was 5 nM or less; +++ for the case where EC50 was 5 to 50 nM; ++ for the case where EC50 was 50 to 500 nM; and + for the case where EC50 was 500 nM to 5 μM.

| Compound | EC50 ([2]; Homo sapiens) [nM] | melting point [°C] | other results |
| --- | --- | --- | --- |
| Cc1cc(C(=O)NCO)ncc1C(c1c(F)ccc(F)c1F)S(=O)(=O)c1ccccc1 (centres unmarked) [Example 106, N-(1-hydroxymethyl)-4-methyl-5-[(phenylsulfonyl)(2,3,6-trifluorophenyl)methyl]pyridine-2-carboxamide] | ≤ 5 |  | difference between the dose exhibiting a statistically significant decrease in the intracerebral amount of Aβ and the dose exhibiting an immunosuppressing effect ([1]; listed as (1-4)): sufficient differences were recognized |
| Cc1cc(C(=O)N(C)C)ncc1C(c1cc(F)ccc1F)[S+]([O-])c1ccc(F)cc1 (centres unmarked) [Example 22, 5-[(2,5-Difluorophenyl)[(4-fluorophenyl)sulfinyl]methyl]-N,N,4-trimethylpyridine-2-carboxamide] | 500 to 5000 |  | difference between the dose exhibiting a statistically significant decrease in the intracerebral amount of Aβ and the dose exhibiting an immunosuppressing effect ([1]; listed as (1-1)): sufficient differences were recognized; also recorded: sufficient difference |
| Cc1cc(C(=O)NCO)ncc1C(c1c(F)ccc(F)c1F)S(=O)(=O)c1ccc(F)cc1 (centres unmarked) [Example 101, 5-[[(4-Fluorophenyl)sulfonyl](2,3,6-trifluorophenyl)methyl]-N-(1-hydroxymethyl)-4-methylpyridine-2-carboxamide] | ≤ 5 |  | difference between the dose exhibiting a statistically significant decrease in the intracerebral amount of Aβ and the dose exhibiting an immunosuppressing effect ([1]; listed as (1-3)): sufficient differences were recognized |
| Cc1cc(C(=O)NCO)ncc1C(c1cc(F)ccc1F)S(=O)(=O)c1ccc(F)cc1 (centres unmarked) [Example 85, 5-[(2,5-difluorophenyl)[(4-fluorophenyl)sulfonyl]methyl]-N-(1-hydroxymethyl)-4-methylpyridine-2-carboxamide] | ≤ 5 | 164 to 166 | difference between the dose exhibiting a statistically significant decrease in the intracerebral amount of Aβ and the dose exhibiting an immunosuppressing effect ([1]; listed as (1-2)): sufficient differences were recognized |
| Cc1cc(C(=O)NCO)ncc1C(c1c(F)ccc(F)c1F)S(=O)(=O)c1ccc(C(F)(F)F)nc1 (centres unmarked) [Example 118, N-(1-hydroxymethyl)-4-methyl-5-[[[6-(trifluoromethyl)pyridin-3-yl]sulfonyl](2,3,6-trifluorophenyl)methyl]pyridine-2-carboxamide] | ≤ 5 | 181 to 182 | difference between the dose exhibiting a statistically significant decrease in the intracerebral amount of Aβ and the dose exhibiting an immunosuppressing effect ([1]; listed as (1-5)): sufficient differences were recognized |
| CC(C)[C@H](O)C(=O)N[C@@H](C)C(=O)N[C@@H]1C(=O)N(C)CCc2ccccc21 [LY, (N)—((S)-2-hydroxy-3-methyl-butyryl)-1-(L-alaninyl)-(S)-1-amino-3-methyl-4,5,6,7-tetrahydro-2H-3-benzoazepin-2-one, reference compound] |  |  | difference between the dose exhibiting a statistically significant decrease in the intracerebral amount of Aβ and the dose exhibiting an immunosuppressing effect [1]: no sufficient difference was recognized; EC50 [2]: 5 to 50 nM |
| CNC(=O)c1cc(C)c(C(c2cc(F)ccc2F)S(=O)(=O)c2ccc(Cl)cc2)cn1 (centres unmarked) [Example 4, 5-[[(4-Chlorophenyl)sulfonyl](2,5-difluorophenyl)methyl]-N,4-dimethylpyridine-2-carboxamide] | ≤ 5 | 200 to 201 |  |
| CCN(C)C(=O)c1cc(C)c(C(c2cc(F)ccc2F)S(=O)(=O)c2ccc(F)cc2)cn1 (centres unmarked) [Example 18, 5-[(2,5-Difluorophenyl)[(4-fluorophenyl)sulfonyl]methyl]-N-ethyl-N,4-dimethylpyridine-2-carboxamide] | 50 to 500 | 165 to 167 |  |
| Cc1cc(C(N)=O)ncc1C(c1c(F)ccc(F)c1F)S(=O)(=O)c1ccc(C(F)(F)F)nc1 (centres unmarked) [Example 117, 4-Methyl-5-[[[6-(trifluoromethyl)pyridin-3-yl]sulfonyl](2,3,6-trifluorophenyl)methyl]pyridine-2-carboxamide] | ≤ 5 | 237 to 238 |  |
| CCNC(=O)c1cc(C)c(C(c2cc(F)ccc2F)S(=O)(=O)c2ccc(F)cc2)cn1 (centres unmarked) [Example 16, 5-[(2,5-Difluorophenyl)[(4-fluorophenyl)sulfonyl]methyl]-N-ethyl-4-methylpyridine-2-carboxamide] | ≤ 5 | 191 to 193 |  |
| COc1ccc(S(=O)(=O)C(c2cnc(C(=O)NCCO)cc2C)c2cc(F)ccc2F)cc1 (centres unmarked) [Example 43, 5-[(2,5-Difluorophenyl)[(4-methoxyphenyl)sulfonyl]methyl]-N-(2-hydroxyethyl)-4-methylpyridine-2-carboxamide] | 5 to 50 | 134 to 135 |  |
| Cc1cc(C(=O)NCCO)ncc1C(c1cc(F)ccc1F)S(=O)(=O)c1ccc(F)cc1 (centres unmarked) [Example 17, 5-[(2,5-Difluorophenyl)[(4-fluorophenyl)sulfonyl]methyl]-N-(2-hydroxyethyl)-4-methylpyridine-2-carboxamide] | ≤ 5 | 153 to 154 |  |
| COC(=O)NCCNC(=O)c1cc(C)c(C(c2cc(F)ccc2F)S(=O)(=O)c2ccc(F)cc2)cn1 (centres unmarked) [Example 84, Methyl[2-[[[5-[(2,5-difluorophenyl)[(4-fluorophenyl)sulfonyl]methyl]-4-methylpyridin-2-yl]carbonyl]amino]ethyl]carbamate] | ≤ 5 | 167 to 169 |  |
| Cc1cc(C(=O)NCO)ncc1C(c1c(F)ccc(F)c1F)S(=O)(=O)c1ccc(Cl)cc1 (centres unmarked) [Example 120, 5-[[(4-Chlorophenyl)sulfonyl](2,3,6-trifluorophenyl)methyl]-N-(hydroxymethyl)-4-methylpyridine-2-carboxamide] | ≤ 5 | 177 to 178 |  |
| Cc1cc(C(=O)NCO)ncc1C(c1c(F)ccc(F)c1F)S(=O)(=O)c1ccc(OC(F)(F)F)cc1 (centres unmarked) [Example 124, N-(hydroxymethyl)-4-methyl-5-[[[4-(trifluoromethoxy)phenyl]sulfonyl](2,3,6-trifluorophenyl)methyl]pyridine-2-carboxamide] | 5 to 50 | 140 to 141 |  |
